# From US5763405A, “Stabilized composition for oral administration of peptides” (Ferring B.V., priority 1994, dated 1998)
# Conditions: pH 6.5
# Protocol: A tube was introduced intranasally after local anaesthesia with xylocaine, and gastric juice was collected. Thereafter one standardized meal was given 1 h before sampling of duodenal and distal jejunum juice and another the next morning before the collection of distal ileal juice. After centrifugation the gastric and intestinal juices were frozen in aliquots of 1 ml and stored at -20° C. Degradation method. The peptide or peptide analog (10 μl of 10 mM peptide in 0.9% aqueous NaCl) was added to 190 μl of undiluted juice at 370° C. Aliquots of 25 μl were withdrawn at intervals and mixed with 100 μl acetone to stop the reaction. After centrifugation for 10 min at 10,000 g, 10 μl of the supernatiant was analyzed by reversed phase HPLC. Determination of peptide degradation. Analysis was carried out in a Varian 5000 HPLC analyzer equipped with a UV-detector (220 nm). Column Bondapak TM C18 (3.9×300 mm), eluant MeOH/0.025M NH4 Ac (isocratic conditions), flow rate 1 ml/min. Protein and pH determination. Protein: Bio-Rad protein assay. pH: Orion model SA720; pH-paper Merck (Darmstadt), range 4.0-7.0.
smiles,measurement,value
"NC(=O)CC[C@@H]1NC(=O)[C@H](Cc2ccccc2)NC(=O)[C@H](Cc2ccc(O)cc2)NC(=O)CCSSC[C@@H](C(=O)N2CCC[C@H]2C(=O)N[C@H](CCCN=C(N)N)C(=O)NCC(N)=O)NC(=O)[C@H](CC(N)=O)NC1=O [DDAVP, Mpa--Tyr--Phe--Gln--Asn--Cys--Pro--D--Arg--Gly--GlyNH2 (SEQ ID NO: 3)]",DDAVP degraded (to about 50%),about 50%
